target: hcGAS (Homo sapiens, UniProt Q8N884); assay: hcGAS LCMS assay (direct measurement of cGAMP production); assay type: biochemical; conditions: 0.5 nM hcGAS, 100 μM ATP, 100 μM GTP, 25 nM dsDNA, 4 h incubation
Protocol: cGAS catalyzes the cyclization of ATP and GTP to produce cGAMP, which is the activating ligand of STING. Human cGAS (hcGAS) inhibition can thus be quantified by measuring how much cGAMP is formed either indirectly, by monitoring ATP-depletion as in the hcGAS Kinase-Glo assay (as described below), or directly, such as using the hcGAS LCMS assay (as described below).
Compounds were tested for their h-cGAS inhibition activity using direct measurement of cGAMP production by LC/MS. Briefly, compounds were incubated with enzyme and substrates for 4 hours (see Table C), before the reaction was stopped with 3 volumes of 70/30 Acetonitrile/H2O mix containing 0.15 mM cGAMP-^13C10^5N5 as internal standard and mixed for […]. After centrifugation (3700 rpm, 10 min, 10° Celsius), […] of each reaction was collected and mixed to equal volume of Acetonitrile. Samples were then analyzed on Qexective (Column: XBridge BEH Amide Column, 130 Å, 3.5 μm, 3 mm×50 mm, Mobile phase A: 10 mM Ammonium acetate in 95/5% H2O/Acetonitrile (0.5% DMSO), Mobile phase B: Acetonitrile (0.5% DMSO).
The results of the assay, expressed as IC50 values, are reported in Table D with the following designations: A represents an IC50 value<0.005 μM; B represents an IC50 value≥0.005 μM and <0.02 μM, C represents an IC50 value≥0.02 μM and <0.06 μM; D represents an IC50 value≥0.06 and <0.2 μM; E represents an IC50 value≥0.2.

hcGAS, sequence (Q8N884 whole entry): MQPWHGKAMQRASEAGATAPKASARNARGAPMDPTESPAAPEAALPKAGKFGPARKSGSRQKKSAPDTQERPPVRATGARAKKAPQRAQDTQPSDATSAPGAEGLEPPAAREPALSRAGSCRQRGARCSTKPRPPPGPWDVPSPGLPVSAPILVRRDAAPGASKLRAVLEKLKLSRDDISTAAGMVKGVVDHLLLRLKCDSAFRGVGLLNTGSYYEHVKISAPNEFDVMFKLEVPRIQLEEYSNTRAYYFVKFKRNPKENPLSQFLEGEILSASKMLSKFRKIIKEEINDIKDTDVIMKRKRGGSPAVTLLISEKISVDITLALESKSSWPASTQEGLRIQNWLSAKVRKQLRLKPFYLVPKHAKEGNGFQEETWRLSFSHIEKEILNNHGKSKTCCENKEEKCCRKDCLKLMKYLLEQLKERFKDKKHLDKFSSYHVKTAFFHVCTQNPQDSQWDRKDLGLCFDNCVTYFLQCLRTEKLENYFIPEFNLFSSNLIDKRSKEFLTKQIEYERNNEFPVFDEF

SMILES	IC50 [nM]
COCCOc1c(NC23CC(C2)C3)cc(C(=O)Nc2nnc(-n3nccc3N)s2)oc1=O [Compound 210, N-(5-(5-amino-1H-pyrazol-1-yl)-1,3,4-thiadiazol-2-yl)-4-(bicyclo[1.1.1]pentan-1-ylamino)-3-(2-methoxyethoxy)-2-oxo-2H-pyran-6-carboxamide]	5 to 20
COc1c(NC2COC(C)(C)OC2)cc(C(=O)Nc2nnc(-n3nccc3C)s2)oc1=O [Compound 195, 4-((2,2-dimethyl-1,3-dioxan-5-yl)amino)-3-methoxy-N-(5-(5-methyl-1H-pyrazol-1-yl)-1,3,4-thiadiazol-2-yl)-2-oxo-2H-pyran-6-carboxamide]	5 to 20
COc1c(N[C@@H]2c3ccccc3C[C@@H]2O)cc(C(=O)Nc2nnc(-n3nccc3C)s2)oc1=O (racemic) [Rac-28, 4-(((cis)-2-hydroxy-2,3-dihydro-1H-inden-1-yl)amino)-3-methoxy-N-(5-(5-methyl-1H-pyrazol-1-yl)-1,3,4-thiadiazol-2-yl)-2-oxo-2H-pyran-6-carboxamide]	≥ 200
COC[C@@H](Nc1cc(C(=O)Nc2nnc(-n3nccc3C)s2)oc(=O)c1OC)C1CC1 (single isomer, unassigned) [Compound 22*]	< 5
COc1c(N[C@@H](C)[C@H](C)OC)cc(C(=O)Nc2nnc(-n3nccc3C)s2)oc1=O [Compound 163]	60 to 200
COCCNc1cc(C(=O)Nc2nnc(-c3sccc3C#N)s2)oc(=O)c1OC [Compound 145, N-(5-(3-cyanothiophen-2-yl)-1,3,4-thiadiazol-2-yl)-3-methoxy-4-((2-methoxyethyl)amino)-2-oxo-2H-pyran-6-carboxamide]	≥ 200
COc1c(N[C@@H]2CCC[C@@H]2OC)cc(C(=O)Nc2nnc(-c3c(Cl)ccn3C)s2)oc1=O (single isomer, unassigned) [48*]	5 to 20
COc1c(N[C@@H]2CC[C@H](OC)C2)cc(C(=O)Nc2nnc(-n3nccc3C)s2)oc1=O (single isomer, unassigned) [125*]	5 to 20
COc1c(NC23CCC(CC2)CC3)cc(C(=O)Nc2nnc(-n3nccc3C)s2)oc1=O [Compound 18, 4-(bicyclo[2.2.2]octan-1-ylamino)-3-methoxy-N-(5-(5-methyl-1H-pyrazol-1-yl)-1,3,4-thiadiazol-2-yl)-2-oxo-2H-pyran-6-carboxamide]	< 5
COc1c(N(C)[C@@H]2CCC[C@@H]2O)cc(C(=O)Nc2nnc(-n3nccc3C)s2)oc1=O (racemic) [Rac-159, 4-(((cis)-2-hydroxycyclopentyl)(methyl)amino)-3-methoxy-N-(5-(5-methyl-1H-pyrazol-1-yl)-1,3,4-thiadiazol-2-yl)-2-oxo-2H-pyran-6-carboxamide]	5 to 20
COc1c(NC23CC(C2)C3)cc(C(=O)Nc2nnc(-n3nccc3N)s2)oc1=O [Compound 178, N-(5-(5-amino-1H-pyrazol-1-yl)-1,3,4-thiadiazol-2-yl)-4-(bicyclo[1.1.1]pentan-1-ylamino)-3-methoxy-2-oxo-2H-pyran-6-carboxamide]	20 to 60
COCCNc1cc(C(=O)Nc2nnc(-n3nccc3N)s2)oc(=O)c1OC [Compound 205, N-(5-(5-amino-1H-pyrazol-1-yl)-1,3,4-thiadiazol-2-yl)-3-methoxy-4-((2-methoxyethyl)amino)-2-oxo-2H-pyran-6-carboxamide]	5 to 20
COc1c(N[C@H]2CCC[C@H]2OCC(F)F)cc(C(=O)Nc2nnc(-n3nccc3C)s2)oc1=O [Compound 206, 4-(((1S,2R)-2-(2,2-difluoroethoxy)cyclopentyl)amino)-3-methoxy-N-(5-(5-methyl-1H-pyrazol-1-yl)-1,3,4-thiadiazol-2-yl)-2-oxo-2H-pyran-6-carboxamide]	5 to 20
COCC1(Nc2cc(C(=O)Nc3nnc(-n4nccc4C)s3)oc(=O)c2OC)CC1 [Compound 97, 3-methoxy-4-((1-(methoxymethyl)cyclopropyl)amino)-N-(5-(5-methyl-1H-pyrazol-1-yl)-1,3,4-thiadiazol-2-yl)-2-oxo-2H-pyran-6-carboxamide]	5 to 20
COCCOc1c(N[C@@H](COC)c2ccccc2)cc(C(=O)Nc2nnc(-n3nccc3C)s2)oc1=O [Compound 200, (R)-4-((2-Methoxy-1-phenylethyl)amino)-3-(2-methoxyethoxy)-N-(5-(5-methyl-1H-pyrazol-1-yl)-1,3,4-thiadiazol-2-yl)-2-oxo-2H-pyran-6-carboxamide]	< 5
COC[C@H](Cc1ccccc1)Nc1cc(C(=O)Nc2nnc(-n3nccc3C)s2)oc(=O)c1OC [Compound 165, (S)-3-methoxy-4-((1-methoxy-3-phenylpropan-2-yl)amino)-N-(5-(5-methyl-1H-pyrazol-1-yl)-1,3,4-thiadiazol-2-yl)-2-oxo-2H-pyran-6-carboxamide]	60 to 200
COc1c(N[C@@H]2CCC[C@@H]2OC)cc(C(=O)Nc2nnc(-n3nccc3C)s2)oc1=O (single isomer, unassigned) [215*]	5 to 20
COc1c(NC2CCC23COC3)cc(C(=O)Nc2nnc(-n3nccc3C)s2)oc1=O (racemic) [Rac-56, 4-((2-oxaspiro[3.3]heptan-5-yl)amino)-3-methoxy-N-(5-(5-methyl-1H-pyrazol-1-yl)-1,3,4-thiadiazol-2-yl)-2-oxo-2H-pyran-6-carboxamide]	5 to 20
COC[C@H](Nc1cc(C(=O)Nc2nnc(-n3nccc3C)s2)oc(=O)c1OC)c1ccccc1OC (single isomer, unassigned) [198*]	20 to 60
COCCNc1cc(C(=O)Nc2nnc(-c3ccsc3Cl)s2)oc(=O)c1OC [Compound 135, N-(5-(2-chlorothiophen-3-yl)-1,3,4-thiadiazol-2-yl)-3-methoxy-4-((2-methoxyethyl)amino)-2-oxo-2H-pyran-6-carboxamide]	20 to 60
COC[C@@]1(Nc2cc(C(=O)Nc3nnc(-n4nccc4C)s3)oc(=O)c2OC)CCOC1 (single isomer, unassigned) [Compound 100*]	5 to 20
COc1c(N[C@@H]2c3ccccc3C[C@@H]2OC)cc(C(=O)Nc2nnc(-n3nccc3C)s2)oc1=O (racemic) [Rac-164, 3-methoxy-4-(((1R,2S)-2-methoxy-2,3-dihydro-1H-inden-1-yl)amino)-N-(5-(5-methyl-1H-pyrazol-1-yl)-1,3,4-thiadiazol-2-yl)-2-oxo-2H-pyran-6-carboxamide]	5 to 20
COCC1(Nc2cc(C(=O)Nc3nnc(-n4nccc4C)s3)oc(=O)c2OC)CCCC1 [Compound 152, 3-methoxy-4-((1-(methoxymethyl)cyclopentyl)amino)-N-(5-(5-methyl-1H-pyrazol-1-yl)-1,3,4-thiadiazol-2-yl)-2-oxo-2H-pyran-6-carboxamide]	5 to 20
COc1c(N[C@H]2CCC[C@H]2OC(F)F)cc(C(=O)Nc2nnc(-n3nccc3C)s2)oc1=O [Compound 212, 4-(((1S,2R)-2-(difluoromethoxy)cyclopentyl)amino)-3-methoxy-N-(5-(5-methyl-1H-pyrazol-1-yl)-1,3,4-thiadiazol-2-yl)-2-oxo-2H-pyran-6-carboxamide]	5 to 20
COC[C@]1(Nc2cc(C(=O)Nc3nnc(-n4nccc4C)s3)oc(=O)c2OC)CCOC1 (single isomer, unassigned) [Compound 101*]	5 to 20
Cc1ccnn1-c1nnc(NC(=O)c2cc3c(c(=O)o2)OCCN3[C@H]2CCC[C@H]2C#N)s1 [Compound 224, 1-((1S,2R)-2-cyanocyclopentyl)-N-(5-(5-methyl-1H-pyrazol-1-yl)-1,3,4-thiadiazol-2-yl)-5-oxo-1,2,3,5-tetrahydropyrano[3,4-b][1,4]oxazine-7-carboxamide]	< 5

From patent US20240270740A1, “INHIBITORS OF CYCLIC GMP-AMP SYNTHASE AND USES THEREOF” (Ventus Therapeutics U.S., Inc., priority 2022, published 2024)
